Reference: patent US8933039B2 (NPS Pharmaceuticals, Inc., priority 1995, dated 2015)
Non-standard residues stand in square brackets, D forms with d. Residues, ends and D or L forms follow the SMILES beside them. Tle = CC(C)(C)[C@H](N)C(=O)O; Abu = CC[C@H](N)C(=O)O

Columns and labels:
DPP-IV = DPP-IV (Homo sapiens, UniProt P27487); assay: Assay for resistance to dipeptidyl peptidase IV (RP-HPLC of cleavage product); settings: human, isolated human placental DPP-IV (dipeptidyl peptidase IV), pH 7.4, % Cleaved by DPP-IV, as Example 3: human placental DPP-IV, 37° C., PBS pH 7.4
DPP-IV, sequence (P27487 whole entry): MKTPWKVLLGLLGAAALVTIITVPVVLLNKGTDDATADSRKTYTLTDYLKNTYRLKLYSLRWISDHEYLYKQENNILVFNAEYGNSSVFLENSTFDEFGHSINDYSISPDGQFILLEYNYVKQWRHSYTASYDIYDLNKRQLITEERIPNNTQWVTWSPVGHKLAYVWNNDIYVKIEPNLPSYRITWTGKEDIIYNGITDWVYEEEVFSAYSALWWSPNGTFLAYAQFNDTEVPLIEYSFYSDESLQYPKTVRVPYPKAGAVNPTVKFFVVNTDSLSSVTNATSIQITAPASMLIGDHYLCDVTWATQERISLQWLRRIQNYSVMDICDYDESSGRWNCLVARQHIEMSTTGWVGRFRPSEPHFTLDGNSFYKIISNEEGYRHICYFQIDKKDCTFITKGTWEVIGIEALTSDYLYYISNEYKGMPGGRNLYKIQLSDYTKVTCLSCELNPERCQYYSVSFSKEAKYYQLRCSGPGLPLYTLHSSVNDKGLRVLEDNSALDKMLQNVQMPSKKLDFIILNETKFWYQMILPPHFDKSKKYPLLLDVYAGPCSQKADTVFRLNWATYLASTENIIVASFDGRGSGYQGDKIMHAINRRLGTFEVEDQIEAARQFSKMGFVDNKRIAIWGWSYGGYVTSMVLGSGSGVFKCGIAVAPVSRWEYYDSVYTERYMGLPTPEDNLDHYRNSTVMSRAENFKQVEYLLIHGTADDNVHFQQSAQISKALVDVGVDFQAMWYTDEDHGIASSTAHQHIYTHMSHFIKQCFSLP
Method: The mixture was incubated at 37° C. in a circulating water bath for 24 hours. The incubation was quenched by the addition of 50 μl of a solution of diprotin A prepared at a concentration of 4 mg/ml in PBS. Each peptide was tested in duplicate.
Each sample was analyzed by reverse-phase (RP) HPLC as follows: 90 μl of the quenched incubation mixture was injected onto a Rainin Dynamax 300 Å, C18, 5 micron, 4.6×250 millimeter column. The samples were eluted with 0.1% trifluoroacetic acid (TFA) in water modified with 0.1% acetonitrile using a linear gradient and a flow rate of 1 ml per minute. Sample components were detected at 214 nanometers (nm). The extent of cleavage was measured by relative integration of the peak corresponding to the cleavage product compared to that of the remaining undigested parent peptide.

CD1 mice = assay: Intestinotrophic activity assessment: small bowel weight in mice; type: in vivo; settings: for % Activity (small bowel inducing activity relative to native rat GLP-2(1-33) = 100%): mice, as Example 4; for % Increase in small bowel weight: CD1 mice, 2.5 μg peptide s.c. b.i.d. in PBS, sacrificed 10 or 14 days, relative to vehicle only
In short: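 Activity expressed against native rat GLP-2(1-33) (100%) and as percent bowel-weight change over vehicle controls, from excised pylorus-to-cecum small bowel. Dosing: 2.5 μg peptide subcutaneously twice daily to 6-week female CD1 mice (n=3-4), killed at day 10 or 14 after fasting ≥20 h.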

Row | Compound | metabolised at 24 h, 0.19 mg/ml (DPP-IV) [%] | % Activity (small bowel inducing activity relative to native rat GLP-2(1-33) = 100%) (CD1 mice) [%] | % Increase in small bowel weight (CD1 mice) [%]
1 | CC[C@H](NC(=O)[C@@H](N)Cc1c[nH]cn1)C(=O)N[C@@H](CC(=O)O)C(=O)NCC(=O)N[C@@H](CO)C(=O)N[C@@H](Cc1ccccc1)C(=O)N[C@@H](CO)C(=O)N[C@@H](CC(=O)O)C(=O)N[C@@H](CCC(=O)O)C(=O)N[C@@H](CCSC)C(=O)N[C@@H](CC(N)=O)C(=O)N[C@H](C(=O)N[C@H](C(=O)N[C@@H](CC(C)C)C(=O)N[C@@H](CC(=O)O)C(=O)N[C@@H](CC(N)=O)C(=O)N[C@@H](CC(C)C)C(=O)N[C@@H](C)C(=O)N[C@@H](C)C(=O)N[C@@H](CCCNC(=N)N)C(=O)N[C@@H](CC(=O)O)C(=O)N[C@@H](Cc1ccccc1)C(=O)N[C@H](C(=O)N[C@@H](CC(N)=O)C(=O)N[C@@H](Cc1c[nH]c2ccccc12)C(=O)N[C@@H](CC(C)C)C(=O)N[C@H](C(=O)N[C@@H](CCC(N)=O)C(=O)N[C@H](C(=O)N[C@@H](CCCCN)C(=O)N[C@H](C(=O)N[C@H](C(=O)N[C@@H](CC(=O)O)C(=O)O)[C@@H](C)O)[C@@H](C)CC)[C@@H](C)O)[C@@H](C)CC)[C@@H](C)CC)[C@@H](C)CC)[C@@H](C)O [[aAbu2]hGLP-2(1-33)] (H-H[Abu]DGSFSDEMNTILDNLAARDFINWLIQTKITD-OH) | 49 | 84 | –
2 | H-HADGSFSDEMNTILDNLAARDFINWLIQTKITE-OH [[Glu33]hGLP-2(1-33)] | 55 | 121 | –
3 | CC[C@H](C)[C@H](NC(=O)[C@H](Cc1ccccc1)NC(=O)[C@H](CC(=O)O)NC(=O)[C@H](CCCNC(=N)N)NC(=O)[C@H](C)NC(=O)[C@H](C)NC(=O)[C@H](CC(C)C)NC(=O)[C@H](CC(N)=O)NC(=O)[C@H](CC(=O)O)NC(=O)[C@H](CC(C)C)NC(=O)[C@@H](NC(=O)[C@@H](NC(=O)[C@H](CC(N)=O)NC(=O)[C@H](CCSC)NC(=O)[C@H](CCC(=O)O)NC(=O)[C@H](CC(=O)O)NC(=O)[C@H](CO)NC(=O)[C@H](Cc1ccccc1)NC(=O)[C@H](CO)NC(=O)CNC(=O)[C@H](CC(=O)O)NC(=O)CNC(=O)[C@@H](N)Cc1c[nH]cn1)[C@@H](C)O)[C@@H](C)CC)C(=O)N[C@@H](CC(N)=O)C(=O)N[C@@H](Cc1c[nH]c2ccccc12)C(=O)N[C@@H](CC(C)C)C(=O)N[C@H](C(=O)N[C@@H](CCC(N)=O)C(=O)N[C@H](C(=O)N[C@@H](CCCCN)C(=O)N[C@H](C(=O)N[C@H](C(=O)N[C@@H](CC(=O)O)C(=O)N[C@@H](CCCNC(=N)N)C(=O)O)[C@@H](C)O)[C@@H](C)CC)[C@@H](C)O)[C@@H](C)CC [[Gly2, Arg34]hGLP-2(1-34)] | 0 | ~250 | –
4 | H-HSDGSFSDEMNTILDNLAARDFINWLIQTKITD-OH [[Ser2]hGLP-2(1-33)] | 0 | 167 | –
5 | H-AGDGSFSDEMNTILDNLAARDFINWLIQTKITD-OH [[Ala1,Gly2]hGLP-2(1-33)] | 0 | 53 | 23
6 | CC[C@H](C)[C@H](NC(=O)[C@H](Cc1ccccc1)NC(=O)[C@H](CC(=O)O)NC(=O)[C@H](CCCNC(=N)N)NC(=O)[C@H](C)NC(=O)[C@H](C)NC(=O)[C@H](CC(C)C)NC(=O)[C@H](CC(N)=O)NC(=O)[C@H](CC(=O)O)NC(=O)[C@H](CC(C)C)NC(=O)[C@@H](NC(=O)[C@@H](NC(=O)[C@H](CC(N)=O)NC(=O)[C@H](CCSC)NC(=O)[C@H](CCC(=O)O)NC(=O)[C@H](CC(=O)O)NC(=O)[C@H](CO)NC(=O)[C@H](Cc1ccccc1)NC(=O)[C@H](CO)NC(=O)CNC(=O)[C@H](CC(=O)O)NC(=O)[C@@H](NC(=O)[C@@H](N)Cc1c[nH]cn1)C(C)(C)C)[C@@H](C)O)[C@@H](C)CC)C(=O)N[C@@H](CC(N)=O)C(=O)N[C@@H](Cc1c[nH]c2ccccc12)C(=O)N[C@@H](CC(C)C)C(=O)N[C@H](C(=O)N[C@@H](CCC(N)=O)C(=O)N[C@H](C(=O)N[C@@H](CCCCN)C(=O)N[C@H](C(=O)N[C@H](C(=O)N[C@@H](CC(=O)O)C(=O)O)[C@@H](C)O)[C@@H](C)CC)[C@@H](C)O)[C@@H](C)CC [[tBuGly2]hGLP-2] (H-H[Tle]DGSFSDEMNTILDNLAARDFINWLIQTKITD-OH) | 0 | 123 | –
7 | H-HADASFSDEMNTILDNLATRDFINWLIQTKITD-OH [[Ala4]ratGLP-2(1-33)] | 72 | 59 | 30
8 | H-HEDGSFSDEMNTILDNLAARDFINWLIQTKITD-OH [[Glu2]hGLP-2(1-33)] | 0 | 93 | –
9 | CC[C@H](C)[C@H](NC(=O)[C@H](Cc1ccccc1)NC(=O)[C@H](CC(=O)O)NC(=O)[C@H](CCCNC(=N)N)NC(=O)[C@H](C)NC(=O)[C@H](C)NC(=O)[C@H](CC(C)C)NC(=O)[C@H](CC(N)=O)NC(=O)[C@H](CC(=O)O)NC(=O)[C@H](CC(C)C)NC(=O)[C@@H](NC(=O)[C@@H](NC(=O)[C@H](CC(N)=O)NC(=O)[C@H](CCSC)NC(=O)[C@H](CCC(=O)O)NC(=O)[C@H](CC(=O)O)NC(=O)[C@H](CO)NC(=O)[C@H](Cc1ccccc1)NC(=O)[C@H](CO)NC(=O)CNC(=O)[C@H](CC(=O)O)NC(=O)[C@H](C)NC(=O)[C@@H](N)Cc1c[nH]cn1)[C@@H](C)O)[C@@H](C)CC)C(=O)N[C@@H](CC(N)=O)C(=O)N[C@@H](Cc1c[nH]c2ccccc12)C(=O)N[C@@H](CC(C)C)C(=O)N[C@H](C(=O)N[C@@H](CCC(N)=O)C(=O)N[C@H](C(=O)N[C@@H](CCCCN)C(=O)N[C@H](C(=O)N[C@H](C(=O)N[C@@H](CC(=O)O)C(=O)O)[C@@H](C)O)[C@@H](C)CC)[C@@H](C)O)[C@@H](C)CC [hGLP-2(1-33), reference compound] | 60 | 100 | –
10 | CC[C@H](C)[C@H](NC(=O)[C@H](Cc1ccccc1)NC(=O)[C@H](CC(=O)O)NC(=O)[C@H](CCCNC(=N)N)NC(=O)[C@H](C)NC(=O)[C@H](C)NC(=O)[C@H](CC(C)C)NC(=O)[C@H](CC(N)=O)NC(=O)[C@H](CC(=O)O)NC(=O)[C@H](CC(C)C)NC(=O)[C@@H](NC(=O)[C@@H](NC(=O)[C@H](CC(N)=O)NC(=O)[C@H](CCSC)NC(=O)[C@H](CCC(=O)O)NC(=O)[C@H](CC(=O)O)NC(=O)[C@H](CO)NC(=O)[C@H](Cc1ccccc1)NC(=O)[C@H](CO)NC(=O)CNC(=O)[C@H](CC(=O)O)NC(=O)[C@@H](C)NC(=O)[C@@H](N)Cc1c[nH]cn1)[C@@H](C)O)[C@@H](C)CC)C(=O)N[C@@H](CC(N)=O)C(=O)N[C@@H](Cc1c[nH]c2ccccc12)C(=O)N[C@@H](CC(C)C)C(=O)N[C@H](C(=O)N[C@@H](CCC(N)=O)C(=O)N[C@H](C(=O)N[C@@H](CCCCN)C(=O)N[C@H](C(=O)N[C@H](C(=O)N[C@@H](CC(=O)O)C(=O)O)[C@@H](C)O)[C@@H](C)CC)[C@@H](C)O)[C@@H](C)CC [[D-Ala2]hGLP-2(1-33)] | 0 | 130 | –
11 | H-HGDASFSDEMNTILDNLAARDFINWLIQTKITD-OH [[Gly2,Ala4]hGLP-2(1-33)] | 0 | 100 | 36
12 | H-YGDGSFSDEMNTILDNLAARDFINWLIQTKITD-OH [[Tyr1, Gly2]hGLP-2(1-33)] | 0 | 241 | –
13 | H-HNDGSFSDEMNTILDNLAARDFINWLIQTKITD-OH [[Asn2]hGLP-2(1-33)] | 0 | 67 | –
14 | H-HADGSFSDEMNTILDNLAARDFINWLIQTRITD-OH [[Arg30]hGLP-2(1-33)] | 59 | 103 | –
15 | H-HQDGSFSDEMNTILDNLAARDFINWLIQTKITD-OH [[Gln2]hGLP-2(1-33)] | 0 | 100 | –
16 | H-HIDGSFSDEMNTILDNLAARDFINWLIQTKITD-OH [[Ile2]hGLP-2(1-33)] | 0 | 90 | –
17 | H-HVDGSFSDEMNTILDNLAARDFINWLIQTKITD-OH [[Val2]hGLP-2(1-33)] | 13 | 180 | –
18 | H-HKDGSFSDEMNTILDNLAARDFINWLIQTKITD-OH [[Lys2]hGLP-2(1-33)] | 0 | 90 | –
19 | H-HFDGSFSDEMNTILDNLAARDFINWLIQTKITD-OH [[Phe2]hGLP-2(1-33)] | 0 | 50 | –
